Reference: PMC5869712 (Scientific Reports, 2018)

Experiments:
BMX = target: T1, BMX (Homo sapiens, UniProt P51813); test: Cys-containing kinase family panel (EurofinsCerep); assay type: biochemical
T1 construct: EurofinsCerep (contract assay service)

ERBB4 = target: T2, ERBB4 (Homo sapiens, UniProt Q15303); test: Cys-containing kinase family panel (EurofinsCerep); assay type: biochemical
T2 construct: EurofinsCerep (contract assay service)

Abl = target: T3, Abl (Homo sapiens, UniProt P00519); test: Eurofins Kinase Profiler panel; assay type: biochemical; conditions: read-out: % inhibition (1μM), DMSO control=100%, lower=stronger
T3 construct: purchased Eurofins KinaseProfiler (Eurofins Pharma Discovery Services UK, Dundee); JAK3 also ChemPartner
T3 sequence (P00519 whole entry): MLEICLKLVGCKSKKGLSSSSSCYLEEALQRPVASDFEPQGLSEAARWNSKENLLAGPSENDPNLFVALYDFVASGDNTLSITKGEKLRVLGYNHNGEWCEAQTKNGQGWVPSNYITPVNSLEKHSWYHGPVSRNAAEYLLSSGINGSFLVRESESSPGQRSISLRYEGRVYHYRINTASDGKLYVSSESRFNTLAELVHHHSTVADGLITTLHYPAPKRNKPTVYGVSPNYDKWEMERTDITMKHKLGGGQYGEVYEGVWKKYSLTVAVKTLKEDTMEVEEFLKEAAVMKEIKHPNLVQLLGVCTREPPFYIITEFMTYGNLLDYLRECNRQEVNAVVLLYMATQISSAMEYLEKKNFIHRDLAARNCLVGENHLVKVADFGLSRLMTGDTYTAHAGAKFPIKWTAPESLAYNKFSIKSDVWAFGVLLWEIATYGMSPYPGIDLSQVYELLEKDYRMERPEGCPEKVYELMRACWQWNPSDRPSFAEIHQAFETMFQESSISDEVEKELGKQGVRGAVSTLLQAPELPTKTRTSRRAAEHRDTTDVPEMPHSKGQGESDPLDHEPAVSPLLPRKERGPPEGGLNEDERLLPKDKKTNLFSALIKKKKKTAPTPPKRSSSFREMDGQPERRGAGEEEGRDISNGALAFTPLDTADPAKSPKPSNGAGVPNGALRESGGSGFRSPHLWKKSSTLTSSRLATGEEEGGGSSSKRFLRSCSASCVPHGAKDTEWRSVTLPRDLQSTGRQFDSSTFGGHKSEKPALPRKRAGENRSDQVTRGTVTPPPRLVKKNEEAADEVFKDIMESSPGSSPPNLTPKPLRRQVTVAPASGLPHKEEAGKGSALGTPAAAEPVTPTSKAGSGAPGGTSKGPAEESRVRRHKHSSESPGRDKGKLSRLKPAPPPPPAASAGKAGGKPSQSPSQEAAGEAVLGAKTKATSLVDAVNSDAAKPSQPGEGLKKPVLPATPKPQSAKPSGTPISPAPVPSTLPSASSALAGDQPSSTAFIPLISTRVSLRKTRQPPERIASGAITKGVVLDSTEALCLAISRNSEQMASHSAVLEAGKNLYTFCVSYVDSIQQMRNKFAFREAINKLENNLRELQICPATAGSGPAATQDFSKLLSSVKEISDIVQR

GRK5 = target: T4, GRK5 (Homo sapiens, UniProt P34947); test: Eurofins Kinase Profiler panel; assay type: biochemical; conditions: read-out: % inhibition (1μM), DMSO control=100%, lower=stronger
T4 construct: purchased Eurofins KinaseProfiler (Eurofins Pharma Discovery Services UK, Dundee); JAK3 also ChemPartner

Aurora-A = target: T5, Aurora-A (Homo sapiens, UniProt O14965); test: Eurofins Kinase Profiler panel; assay type: biochemical
T5 construct: Eurofins Pharma Discovery Services UK Limited (Kinase Profiler service)
T5 sequence (O14965 whole entry): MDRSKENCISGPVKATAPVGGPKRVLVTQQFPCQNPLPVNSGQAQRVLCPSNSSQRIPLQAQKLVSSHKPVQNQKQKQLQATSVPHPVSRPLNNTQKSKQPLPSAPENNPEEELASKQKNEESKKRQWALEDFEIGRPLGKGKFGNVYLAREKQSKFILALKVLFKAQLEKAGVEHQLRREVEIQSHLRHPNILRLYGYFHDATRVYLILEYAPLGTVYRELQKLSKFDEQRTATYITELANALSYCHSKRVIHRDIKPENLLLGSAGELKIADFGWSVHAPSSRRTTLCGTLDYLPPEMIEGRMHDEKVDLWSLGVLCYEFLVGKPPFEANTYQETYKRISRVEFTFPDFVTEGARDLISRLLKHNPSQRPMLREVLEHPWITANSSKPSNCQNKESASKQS

IR = target: T6, IR (Homo sapiens, UniProt P06213); test: Eurofins Kinase Profiler panel; assay type: biochemical; conditions: read-out: % inhibition (1μM), DMSO control=100%, lower=stronger
T6 construct: purchased Eurofins KinaseProfiler (Eurofins Pharma Discovery Services UK, Dundee); JAK3 also ChemPartner
T6 sequence (P06213 28-1382): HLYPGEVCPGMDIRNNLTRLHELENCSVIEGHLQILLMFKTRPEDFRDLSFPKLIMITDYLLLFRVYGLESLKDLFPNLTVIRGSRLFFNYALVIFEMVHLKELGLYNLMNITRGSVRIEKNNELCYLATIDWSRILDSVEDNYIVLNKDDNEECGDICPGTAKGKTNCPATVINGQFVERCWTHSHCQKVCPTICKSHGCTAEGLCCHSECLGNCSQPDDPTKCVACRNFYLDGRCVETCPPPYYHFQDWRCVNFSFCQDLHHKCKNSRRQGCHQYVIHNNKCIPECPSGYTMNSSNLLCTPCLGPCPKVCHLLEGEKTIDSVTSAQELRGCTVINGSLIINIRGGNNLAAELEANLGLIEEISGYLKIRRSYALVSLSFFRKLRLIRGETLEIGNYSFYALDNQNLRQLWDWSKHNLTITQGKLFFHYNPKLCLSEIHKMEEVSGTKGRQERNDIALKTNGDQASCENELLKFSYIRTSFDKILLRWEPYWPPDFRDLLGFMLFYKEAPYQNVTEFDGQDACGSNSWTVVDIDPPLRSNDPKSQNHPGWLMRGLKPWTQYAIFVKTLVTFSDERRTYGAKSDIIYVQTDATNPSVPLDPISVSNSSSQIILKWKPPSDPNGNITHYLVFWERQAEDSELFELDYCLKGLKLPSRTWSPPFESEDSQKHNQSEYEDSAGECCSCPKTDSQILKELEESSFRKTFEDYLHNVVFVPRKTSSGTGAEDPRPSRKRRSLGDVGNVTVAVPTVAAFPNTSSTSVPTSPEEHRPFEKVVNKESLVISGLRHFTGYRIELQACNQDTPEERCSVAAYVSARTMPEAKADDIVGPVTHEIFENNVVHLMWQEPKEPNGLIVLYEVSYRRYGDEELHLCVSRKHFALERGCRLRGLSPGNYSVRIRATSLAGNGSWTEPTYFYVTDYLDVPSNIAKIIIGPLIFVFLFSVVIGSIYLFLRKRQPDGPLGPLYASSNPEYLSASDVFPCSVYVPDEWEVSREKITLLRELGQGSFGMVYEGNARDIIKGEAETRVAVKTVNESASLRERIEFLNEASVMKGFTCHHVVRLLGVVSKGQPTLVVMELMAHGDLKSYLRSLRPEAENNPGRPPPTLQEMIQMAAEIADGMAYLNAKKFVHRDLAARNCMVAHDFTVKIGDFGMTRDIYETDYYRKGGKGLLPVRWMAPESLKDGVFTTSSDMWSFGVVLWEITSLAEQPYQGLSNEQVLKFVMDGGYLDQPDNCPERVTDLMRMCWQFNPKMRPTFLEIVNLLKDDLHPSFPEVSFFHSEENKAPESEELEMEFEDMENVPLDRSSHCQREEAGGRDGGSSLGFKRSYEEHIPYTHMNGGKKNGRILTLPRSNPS

CDK2 = target: T7, CDK2 (Homo sapiens, UniProt P24941); test: Eurofins Kinase Profiler panel; assay type: biochemical; conditions: read-out: % inhibition (1μM), DMSO control=100%, lower=stronger
T7 construct: purchased Eurofins KinaseProfiler (Eurofins Pharma Discovery Services UK, Dundee); JAK3 also ChemPartner

KDR = target: T8, KDR (Homo sapiens, UniProt P35968); test: Eurofins Kinase Profiler panel; assay type: biochemical; conditions: read-out: % inhibition (1μM), DMSO control=100%, lower=stronger
T8 construct: purchased Eurofins KinaseProfiler (Eurofins Pharma Discovery Services UK, Dundee); JAK3 also ChemPartner

Lck = target: T9, Lck (Homo sapiens, UniProt P06239); test: Eurofins Kinase Profiler panel; assay type: biochemical; conditions: read-out: % inhibition (1μM), DMSO control=100%, lower=stronger
T9 construct: purchased Eurofins KinaseProfiler (Eurofins Pharma Discovery Services UK, Dundee); JAK3 also ChemPartner

MAPKAP-K2 = target: T10, MAPKAP-K2 (Homo sapiens, UniProt P49137); test: Eurofins Kinase Profiler panel; assay type: biochemical; conditions: read-out: % inhibition (1μM), DMSO control=100%, lower=stronger
T10 construct: purchased Eurofins KinaseProfiler (Eurofins Pharma Discovery Services UK, Dundee); JAK3 also ChemPartner
T10 sequence (P49137 whole entry): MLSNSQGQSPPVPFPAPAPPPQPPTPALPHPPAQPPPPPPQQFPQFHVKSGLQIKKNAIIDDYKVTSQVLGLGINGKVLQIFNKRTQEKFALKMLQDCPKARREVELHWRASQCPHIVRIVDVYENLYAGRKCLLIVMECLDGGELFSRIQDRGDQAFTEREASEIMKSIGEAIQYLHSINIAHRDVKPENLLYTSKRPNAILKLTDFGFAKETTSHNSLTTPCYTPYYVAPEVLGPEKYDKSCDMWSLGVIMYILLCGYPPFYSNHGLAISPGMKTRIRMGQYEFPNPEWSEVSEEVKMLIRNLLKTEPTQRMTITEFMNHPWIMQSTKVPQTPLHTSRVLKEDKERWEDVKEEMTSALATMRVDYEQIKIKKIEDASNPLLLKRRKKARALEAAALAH

PKCζ = target: T11, PKCζ (Homo sapiens, UniProt Q05513); test: Eurofins Kinase Profiler panel; assay type: biochemical; conditions: read-out: % inhibition (1μM), DMSO control=100%, lower=stronger
T11 construct: purchased Eurofins KinaseProfiler (Eurofins Pharma Discovery Services UK, Dundee); JAK3 also ChemPartner
Text: (§1) The assay protocol guides are commercially available from ChemPartner.

Plk3 = target: T12, Plk3 (Homo sapiens, UniProt Q9H4B4); test: Eurofins Kinase Profiler panel; assay type: biochemical; conditions: read-out: % inhibition (1μM), DMSO control=100%, lower=stronger
T12 construct: purchased Eurofins KinaseProfiler (Eurofins Pharma Discovery Services UK, Dundee); JAK3 also ChemPartner
T12 sequence (Q9H4B4 whole entry): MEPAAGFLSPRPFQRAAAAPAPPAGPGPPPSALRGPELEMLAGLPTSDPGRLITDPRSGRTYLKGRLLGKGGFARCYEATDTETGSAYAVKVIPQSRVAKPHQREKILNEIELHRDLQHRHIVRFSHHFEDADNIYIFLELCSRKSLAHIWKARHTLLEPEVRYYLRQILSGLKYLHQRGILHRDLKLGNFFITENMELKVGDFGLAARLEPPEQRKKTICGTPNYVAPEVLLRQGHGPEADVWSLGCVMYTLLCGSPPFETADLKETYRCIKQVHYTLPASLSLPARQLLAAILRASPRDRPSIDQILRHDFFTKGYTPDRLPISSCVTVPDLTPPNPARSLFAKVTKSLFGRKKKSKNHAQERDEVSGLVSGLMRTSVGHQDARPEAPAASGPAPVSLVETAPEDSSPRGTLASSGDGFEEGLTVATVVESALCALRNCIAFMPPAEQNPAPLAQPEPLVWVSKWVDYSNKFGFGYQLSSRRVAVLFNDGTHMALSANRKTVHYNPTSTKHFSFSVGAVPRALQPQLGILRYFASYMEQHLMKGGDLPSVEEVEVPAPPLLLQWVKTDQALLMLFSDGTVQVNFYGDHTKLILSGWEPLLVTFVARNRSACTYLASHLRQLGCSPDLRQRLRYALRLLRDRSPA
Text: as §1

MST1 = target: T13, MST1 (Homo sapiens, UniProt Q13043); test: Eurofins Kinase Profiler panel; assay type: biochemical; conditions: read-out: % inhibition (1μM), DMSO control=100%, lower=stronger
T13 construct: purchased Eurofins Pharma Discovery Services UK Limited (Kinase Profiler screening platform)

[1] = test system: IL-2-induced STAT5 phosphorylation (JAK1/JAK3); test: IL-2-induced pSTAT5 in total lymphocytes in hPBMCs, flow cytometry; assay type: cell-based; conditions: Homo sapiens, Lymphocyte, hPBMC total lymphocytes, trigger IL-2, readout pSTAT5
JAK3 (Cys909) = JAK3 (Cys909) (Homo sapiens, UniProt P52333); test: LC-MS/MS mapping of covalent modification; assay type: binding; conditions: LC-MS/MS after incubation of JAK3 with compound
Chain of JAK3 (Cys909) (P52333 whole entry): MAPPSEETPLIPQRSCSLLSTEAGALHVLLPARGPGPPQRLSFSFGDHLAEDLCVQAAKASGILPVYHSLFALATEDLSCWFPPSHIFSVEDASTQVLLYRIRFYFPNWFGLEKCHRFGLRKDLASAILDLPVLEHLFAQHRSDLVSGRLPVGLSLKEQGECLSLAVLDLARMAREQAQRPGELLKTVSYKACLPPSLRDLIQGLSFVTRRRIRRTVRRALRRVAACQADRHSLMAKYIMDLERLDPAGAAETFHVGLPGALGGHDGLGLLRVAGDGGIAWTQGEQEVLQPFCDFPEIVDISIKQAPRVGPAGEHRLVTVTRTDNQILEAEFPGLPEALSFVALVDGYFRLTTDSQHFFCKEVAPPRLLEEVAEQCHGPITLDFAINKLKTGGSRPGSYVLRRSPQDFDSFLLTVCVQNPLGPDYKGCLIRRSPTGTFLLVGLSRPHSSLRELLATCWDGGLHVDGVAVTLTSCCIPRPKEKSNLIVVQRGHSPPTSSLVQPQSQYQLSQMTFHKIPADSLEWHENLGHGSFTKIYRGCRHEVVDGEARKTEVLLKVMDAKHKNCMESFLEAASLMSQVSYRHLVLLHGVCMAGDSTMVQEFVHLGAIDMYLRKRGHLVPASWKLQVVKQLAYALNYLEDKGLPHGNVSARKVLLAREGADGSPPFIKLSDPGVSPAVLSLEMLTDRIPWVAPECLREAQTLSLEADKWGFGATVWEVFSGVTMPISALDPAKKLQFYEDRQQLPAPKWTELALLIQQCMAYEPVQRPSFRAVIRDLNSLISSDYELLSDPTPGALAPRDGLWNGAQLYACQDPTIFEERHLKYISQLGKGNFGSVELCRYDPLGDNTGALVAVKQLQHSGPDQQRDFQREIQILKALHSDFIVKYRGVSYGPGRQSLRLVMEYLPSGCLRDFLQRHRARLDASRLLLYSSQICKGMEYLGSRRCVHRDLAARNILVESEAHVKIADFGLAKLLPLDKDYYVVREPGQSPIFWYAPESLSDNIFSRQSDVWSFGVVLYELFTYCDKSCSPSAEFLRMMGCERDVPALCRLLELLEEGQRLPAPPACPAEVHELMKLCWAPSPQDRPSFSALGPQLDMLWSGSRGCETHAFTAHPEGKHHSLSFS
Description: […]. Then, trypsin was added at a 1:50 trypsin-to-protein mass ratio for the first digestion overnight and a 1:100 trypsin-to-protein mass ratio for a second 4-h digestion. The digested peptides were dried with a SpeedVac (Thermo) for LC-MS/MS analysis.
Peptides were dissolved in solvent A (0.1% FA in 2% ACN) and directly loaded onto a reversed-phase pre-column (Acclaim PepMap 100, Thermo Scientific). […] The resulting peptides were analysed by Q Exactive^TM Plus hybrid Quadrupole-Orbitrap Mass Spectrometer (ThermoFisher Scientific).
The peptides were subjected to NSI source followed by tandem mass spectrometry (MS/MS) in Q Exactive^TM Plus (Thermo) coupled online to the UPLC. Intact peptides were detected in the Orbitrap at a resolution of 70,000. Peptides were selected for MS/MS using 30% NCE; ion fragments were detected in the Orbitrap at a resolution of 17,500. A data-dependent procedure that alternated between one MS scan followed by […] was applied for the top 20 precursor ions above a threshold ion count of 5000 in the MS survey scan with 5.0 s dynamic exclusion. The electrospray voltage applied was 2.0 kV. Automatic gain control (AGC) was used to prevent overfilling of the ion trap; 5 E4 ions were accumulated for generation of MS/MS spectra. For MS scans, the m/z scan range was 350 to 1800.

[2] = test system: Th1, Th17 and Treg cells of CIA mice; test: Flow cytometry analysis of Th1, Th17 and Treg in CIA mice; assay type: in vivo, mouse; conditions: 100 mg/kg
Description: On day 32 after the indicated treatments, mice were sacrificed to obtain cells from the spleen. Then, the cells were incubated with the corresponding antibodies to detect Th1, Th17 cells and Treg cells. CD4^+ IFN-γ^+ represents Th1 cells, CD4^+ IL-17^+ represents Th17 cells in […]. CD4^+ Foxp3^+ represents Treg cells. The analyses of cells were performed as described above.

BALB/c mice = test: Acute oral toxicity and haematology analysis in BALB/c mice; conditions: for HCT / HGB / LY / MCH / MCHC / MCV / MO / PLT / RBC / WBC: Balb/c mice
[3] = test system: EPO-induced JAK/STAT5 phosphorylation in HEL cells (JAK2); test: STAT5 phosphorylation induced by EPO in HEL cells, Western blot
[4] = test system: IL-3-induced JAK/STAT5 phosphorylation in TF-1 cells (JAK2); test: STAT5 phosphorylation induced by IL-3 in TF-1 cells, Western blot
[5] = test system: IFN-α2b-induced JAK/STAT1 phosphorylation in U2OS cells (JAK1); test: STAT1 phosphorylation induced by IFN-α2b in U2OS cells, Western blot

Question: How did the inhibition at 1 µM (BMX) turn out when `C=CC(=O)N[C@@H]1CCCN(c2ncnc3[nH]ccc23)C1` [RB1] was run?
Answer: Its inhibition at 1 µM is 4%.

Question: What about the inhibition at 1 µM (ERBB4) of the same compound?
Answer: The inhibition at 1 µM was -3.5%.

Question: What about the activity at 1 µM (Abl) of the same compound?
Answer: The activity at 1 µM was 112%.

Question: What about the activity at 1 µM (GRK5) of the same compound?
Answer: The activity at 1 µM was 94%.

Question: And the IC50 (Aurora-A; estimated)?
Answer: Its IC50 is > 0.8 µM.

Question: And the activity at 1 µM (Aurora-A; read-out: % inhibition (1μM), 1 µM, DMSO control=100%, lower=stronger)?
Answer: The activity at 1 µM was 21%.

Question: And the activity at 1 µM (IR)?
Answer: Its activity at 1 µM is 114%.

Question: What about the activity at 1 µM (CDK2) of the same compound?
Answer: Its activity at 1 µM is 93%.

Question: And the activity at 1 µM (KDR)?
Answer: Its activity at 1 µM is 96%.

Question: And the activity at 1 µM (Lck)?
Answer: Its activity at 1 µM is 80%.

Question: And the activity at 1 µM (MAPKAP-K2)?
Answer: The activity at 1 µM was 97%.

Question: What about the activity at 1 µM (PKCζ) of the same compound?
Answer: Its activity at 1 µM is 106%.

Question: What about the activity at 1 µM (Plk3) of the same compound?
Answer: The activity at 1 µM was 99%.

Question: And the activity at 1 µM (MST1)?
Answer: The activity at 1 µM was 83%.

Question: And the IC50 [1]?
Answer: Its IC50 is 0.105 µM.

Question: What about the “covalent modification of JAK3 (Cys909-containing peptide)” value (JAK3 (Cys909)) of the same compound?
Answer: Its value is “covalently modify JAK3 in an apparently irreversible manner”.

Question: And the “percentage of Treg cells” value ([2]; model 0.55%)?
Answer: The value was 1.13%.

Question: And the Th1 cells ([2]; model 1.12%, normal […])?
Answer: Its Th1 cells is 0.49%.

Question: And the “percentage of Th17 cells” value ([2]; model 2.13%)?
Answer: The value was 0.80%.

Question: What about the “acute haematological toxicity in WBC and lymphocyte counts” value (BALB/c mice; BALB/c mice, oral, even at 1000 mg/kg, after 14 days) of the same compound?
Answer: The value was “did not induce significant acute haematological toxicity”.

Question: What about the “acute oral toxicity, adverse effects” value (BALB/c mice; BALB/c mice, single doses, 14-days recovery time) of the same compound?
Answer: Its value is “no obvious adverse results”.

Question: And the HCT (BALB/c mice; oral 100 mg/kg)?
Answer: The HCT was 46.94 ± 1.80%.

Question: And the HGB (BALB/c mice; oral 100 mg/kg)?
Answer: The HGB was 168.12 ± 7.36 g/L.

Question: And the LY (BALB/c mice; oral 100 mg/kg)?
Answer: The LY was 65.93 ± 3.09%.

Question: What about the MCH (BALB/c mice; oral 100 mg/kg) of the same compound?
Answer: The MCH was 16.13 ± 0.12 pg.

Question: And the MCHC (BALB/c mice; oral 100 mg/kg)?
Answer: Its MCHC is 369.77 ± 2.01 g/L.

Question: What about the MCV (BALB/c mice; oral 100 mg/kg) of the same compound?
Answer: Its MCV is 48.98 ± 0.22 fL.

Question: What about the MO (BALB/c mice; oral 100 mg/kg) of the same compound?
Answer: The MO was 6.99 ± 1.26%.

Question: And the PLT (BALB/c mice; oral 100 mg/kg)?
Answer: Its PLT is 385.34 ± 43.61 1×109/L.

Question: What about the RBC (BALB/c mice; oral 100 mg/kg) of the same compound?
Answer: Its RBC is 9.20 ± 0.31 1×1012/L.

Question: What about the WBC (BALB/c mice; oral 100 mg/kg) of the same compound?
Answer: The WBC was 9.12 ± 0.98 1×109/L.

Question: And the HCT (BALB/c mice; oral 300 mg/kg)?
Answer: Its HCT is 44.82 ± 1.77%.

Question: What about the HGB (BALB/c mice; oral 300 mg/kg) of the same compound?
Answer: The HGB was 158.49 ± 6.40 g/L.

Question: And the LY (BALB/c mice; oral 300 mg/kg)?
Answer: The LY was 75.04 ± 3.17%.

Question: And the MCH (BALB/c mice; oral 300 mg/kg)?
Answer: The MCH was 15.98 ± 0.22 pg.

Question: And the MCHC (BALB/c mice; oral 300 mg/kg)?
Answer: Its MCHC is 360.54 ± 3.84 g/L.

Question: What about the MCV (BALB/c mice; oral 300 mg/kg) of the same compound?
Answer: Its MCV is 50.03 ± 0.08 fL.

Question: What about the MO (BALB/c mice; oral 300 mg/kg) of the same compound?
Answer: The MO was 6.50 ± 0.86%.

Question: What about the PLT (BALB/c mice; oral 300 mg/kg) of the same compound?
Answer: Its PLT is 360.12 ± 33.74 1×109/L.

Question: What about the RBC (BALB/c mice; oral 300 mg/kg) of the same compound?
Answer: The RBC was 9.90 ± 0.22 1×1012/L.

Question: What about the WBC (BALB/c mice; oral 300 mg/kg) of the same compound?
Answer: The WBC was 8.64 ± 1.05 1×109/L.

Question: And the HCT (BALB/c mice; oral 1000 mg/kg)?
Answer: The HCT was 43.53 ± 1.68%.

Question: What about the HGB (BALB/c mice; oral 1000 mg/kg) of the same compound?
Answer: Its HGB is 150.33 ± 6.94 g/L.

Question: And the LY (BALB/c mice; oral 1000 mg/kg)?
Answer: The LY was 69.43 ± 1.88%.

Question: And the MCH (BALB/c mice; oral 1000 mg/kg)?
Answer: Its MCH is 16.08 ± 0.09 pg.

Question: What about the MCHC (BALB/c mice; oral 1000 mg/kg) of the same compound?
Answer: Its MCHC is 355.00 ± 2.16 g/L.

Question: And the MCV (BALB/c mice; oral 1000 mg/kg)?
Answer: The MCV was 49.82 ± 0.12 fL.

Question: What about the MO (BALB/c mice; oral 1000 mg/kg) of the same compound?
Answer: Its MO is 8.23 ± 1.08%.

Question: And the PLT (BALB/c mice; oral 1000 mg/kg)?
Answer: Its PLT is 327.67 ± 46.45 1×109/L.

Question: What about the RBC (BALB/c mice; oral 1000 mg/kg) of the same compound?
Answer: The RBC was 10.44 ± 0.16 1×1012/L.

Question: What about the WBC (BALB/c mice; oral 1000 mg/kg) of the same compound?
Answer: Its WBC is 9.33 ± 1.12 1×109/L.

Question: What about the “Selectivity JAK2/JAK3” value ([3]; EPO, pSTAT5) of the same compound?
Answer: The value was > 1000.

Question: What about the IC50 ([3]; Homo sapiens) of the same compound?
Answer: The IC50 was > 50 µM.

Question: And the IC50 ([4]; Homo sapiens)?
Answer: Its IC50 is > 50 µM.

Question: What about the “Selectivity JAK2/JAK3” value ([4]; IL-3, pSTAT5) of the same compound?
Answer: The value was > 1000.

Question: What about the IC50 ([5]; Homo sapiens, read-out: IC50, STAT and JAK phosphorylation) of the same compound?
Answer: The IC50 was > 50 µM.

Question: And the “Selectivity JAK1/JAK3” value ([5]; IFN-α2B, pSTAT1)?
Answer: Its value is > 1000.
